Values of other authors as cited in patent publication US20140228287A1, “1-[(3-CYANO-PYRIDIN-2-YL)METHYL]-3-METHYL-7-(2-BUTYN-1-YL)-8-[3-(R)-AMINO-PIPERIDIN-1-YL]-AXANTHINE FOR THE TREATMENT OF A METABOLIC DISORDER OF A PREDOMINANTLY CARNIVOROUS NON-HUMAN ANIMAL” (BOEHRINGER INGELHEIM VETMEDICA GMBH, priority 2010, published 2014).

Experiments:
GLP-1 = settings: after administration to rats and to cats; cited from earlier work
plasma glucagon = settings: in vivo; cited from earlier work

In the case of CC#CCn1c(N2CCC[C@@H](N)C2)nc2c1c(=O)n(Cc1nc(C)cc3ccccc13)c(=O)n2C [1-[(3-Methyl-isochinoline-1-yl)methyl]-3-methyl-7-(2-butin-1-yl)-8-((R)-3-amino-piperidine-1-yl)-xanthine], the “effect of GLP-1” value (GLP-1) is given as “the effect of GLP-1 could be prolonged”.

In the case of N#Cc1ccc(NCCNCC(=O)N2CCC[C@H]2C#N)nc1 [NVP-DPP728], the “plasma glucagon concentration in cats” value (plasma glucagon) is listed as “reduce the plasma glucagon concentration”.
